Legend:
LXRβ LBD = target: T1, LXRβ LBD (Homo sapiens, UniProt P55055); assay: differential HDX-MS of LXRβ LBD (apo vs ligand-bound); design: human his-tagged LXRβ LBD (216-461); His tag; made in house; host or cells: Escherichia coli BL21(DE3); conditions: after 30 s of deuterium exchange
T1 sequence (P55055 215-460 limits assumed): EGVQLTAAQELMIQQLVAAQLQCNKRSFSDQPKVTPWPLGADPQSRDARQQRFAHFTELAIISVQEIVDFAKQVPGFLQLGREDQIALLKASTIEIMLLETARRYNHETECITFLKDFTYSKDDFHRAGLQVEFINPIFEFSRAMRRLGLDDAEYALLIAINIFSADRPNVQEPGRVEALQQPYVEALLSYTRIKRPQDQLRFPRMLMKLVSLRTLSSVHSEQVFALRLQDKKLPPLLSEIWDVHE
Experimental: (§1) Prior to the deuterium incorporation experiments, 10 µM apo LXR was incubated with 10× excess of ligand or equal volume of DMSO for 30 min at room temperature. In the experiments with cofactors, 15× excess of the SRC1 coactivator peptide and the NCOR1 corepressor peptide were added to the ligand-bound or apo proteins, respectively, and incubated for 30 min at room temperature. […] A fully deuterated sample was generated by incubating protein with 4 M guanidine-HCl in D2O for 30 min at 45 °C. Exchange reactions were performed with a CTC PAL sample handling robot (LEAP Technologies). Labeling times were 30, 60, 180, 600, and 1800 s in the kinetics experiments. Differential HDX of a complete compound selection was measured after 30 and 600 s of labeling time points. Reactions were conducted by incubating 4 µl of LXR with 50 µl of D2O buffer (containing 25 mM Tris-HCl (pD 7.6), 50 mM NaCl, 10% glycerol, and 1 mM TCEP). The exchange reaction was stopped by the addition of 50 µl of quench solution (3 M urea, 0.1% TFA) followed by immediate injection into a Enzymate BEH Pepsin 2.1 × 30 mm Column (Waters, UK) for protein digestion (2 min at 24 °C). Peptic digest was further injected on a Waters nanoACQUITY UPLC System where peptides were first desalted by trapping for 3 min on a VanGuard Pre-Column Acquity UPLC BEH C18 (1.7 μm; 2.1 × 5 mm), and then eluted over a 6-min 5–40% (vol/vol) acetonitrile (containing 0.1% formic acid) gradient into a Waters Synapt G2-Si mass spectrometer. Peptide separation was conducted at 0.1 °C. All exchange reactions were performed in triplicates.
(§2) Peptides from three samples of non-deuterated LXR were identified by using the ProteinLynx Global Server (PLGS Waters, UK). Peptides with an intensity of over 5000, a mass error < 5 ppm, and present in at least two of the three data acquisitions were pooled and imported into the DynamX data analysis software (Waters, UK). After a first round of automated spectral processing by using DynamX, each peptide was inspected manually for suitability for further analysis.
(§3) For pairwise comparison, MEMHDX software was used to identify statistically significant changes of deuterium uptake. For all peptides, a value of relative exchange per amino acid was corrected to back exchange. The mean deuteration level per amino acid was calculated by using Matlab (Mathworks)[69] and subsequently mapped onto the crystal structures with PyMOL (Schrodinger LLC). For structural representation, loop modeling with MOE (Chemical Computing Group Inc.) was applied on 2ACL.pdb file for LXRα LBD, and 1PQC.pdb for LXRβ LBD.

LXRα/SRC1 = target: T2, LXRα/SRC1 (Homo sapiens, UniProt Q13133); assay: SPR cofactor recruitment, LXRα LBD binding to immobilized SRC1 coactivator peptide; conditions: LXRα LBD 0.02–10 µM equilibrated with compound (50 μM)
T2 construct: Human his-tagged LXRα LBD (200-447); His tag; made in house; host or cells: Escherichia coli BL21(DE3)
T2 sequence (Q13133 200-447): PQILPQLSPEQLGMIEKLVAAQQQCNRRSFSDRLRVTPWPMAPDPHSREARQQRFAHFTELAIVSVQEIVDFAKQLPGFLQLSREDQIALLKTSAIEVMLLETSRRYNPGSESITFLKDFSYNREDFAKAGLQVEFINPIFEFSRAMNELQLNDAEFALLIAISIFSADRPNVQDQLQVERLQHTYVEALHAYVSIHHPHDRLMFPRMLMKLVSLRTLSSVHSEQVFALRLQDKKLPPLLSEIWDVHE
T2 sequence (Q15788 with tags, fused parts or gaps partner limits assumed): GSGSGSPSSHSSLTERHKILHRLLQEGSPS
Experimental: The peptides carried an N-terminal biotin for surface immobilization on a Xantec NID200M Sensor Chip (NTA-derivatized carboxymethyldextran hydrogel, XanTec bioanalytics GmbH) preloaded with Ni^2+. […] LXRα and LXRβ LBD proteins were serially diluted in SPR running buffer (10 mM HEPES, 150 mM NaCl, and 0.05% Tween 20, pH 7.4) to a broad range of concentrations (0.02–10 µM) and equilibrated with tested compound (50 μM) prior to the sample injection over a modified biosensor surface. LXR-ligand complexes were injected in quick succession for 120 s over immobilized cofactor peptides and reference surfaces along with blank samples followed by 900 s of dissociation. The binding level at equilibrium was monitored for all samples, including the reference sample that contained DMSO at equal amount as tested compounds. All data were normalized to this reference sample in order to quantify the effects on peptide binding without bias by receptor instability. The surface was regenerated with 0.5% (w/v) SDS after each injection. Binding responses in the steady-state region of the sensorgrams were plotted against LXR LBD concentration to determine the overall equilibrium-binding affinity by fitting the data to nonlinear regression (Prism 8; GraphPad).

LXRα LBD = target: T3, LXRα LBD (Homo sapiens, UniProt Q13133); assay: differential HDX-MS of LXRα LBD (apo vs ligand-bound); design: Human his-tagged LXRα LBD (200-447); His tag; made in house; host or cells: Escherichia coli BL21(DE3); conditions: for protection of LXRα H3 from deuterium exchange: after 600 s of deuterium exchange; for stabilization of LXRα H12: HDX-MS
T3 sequence (Q13133 200-447): T2 sequence (Q13133 200-447)
Experimental: as §1, §2, §3

LXR KO macrophages = assay: LXR target gene expression in LXR KO macrophages; format: cell-based; conditions: reply to reviewers
ABCA1 mRNA = assay: human whole blood assay, ABCA1 mRNA; format: cell-based; conditions: preliminary results, reply to reviewers

What does the source list for `CC(C)N1C(=O)C(NC2CCN(c3ncc(CC(=O)O)cc3Cl)CC2)=C(c2ccccc2)S1(=O)=O` [AZ6]?
protection of LXRβ H11–H12 from deuterium exchange (LXRβ LBD): 17-25%; Kd (LXRα/SRC1): 1500 nM

Which results are given for `O=C1C(Cc2ccccc2)=C(NCCCCc2ccccc2)C(=O)N1Cc1ccccc1` [AZ8]?
protection of LXRβ H11–H12 from deuterium exchange (LXRβ LBD): 17-25%; protection of LXRα H3 from deuterium exchange (LXRα LBD): no effect

How did the “protection of LXRβ H11–H12 from deuterium exchange” value (LXRβ LBD) turn out when `O=S(=O)(c1ccccc1)N(CC(F)(F)F)c1ccc(C(O)(C(F)(F)F)C(F)(F)F)cc1` [T0901317, reference compound] was run?
The value was 17-25%.

How did the “protection of LXRβ H11–H12 from deuterium exchange” value (LXRβ LBD) turn out when `CC(C)N1C(=O)C(NCCCCc2cccc(S(N)(=O)=O)n2)=C(c2ccccc2)S1(=O)=O` [AZ3] was run?
Its value is 17-25%.

For `CN(C)C(=O)c1cnc(N2CC[C@@H](CNC3=C(c4ccccc4)S(=O)(=O)N(C(C)(C)C)C3=O)C2)c(Cl)c1` [AZ5], which “stabilization of LXRα H12” value (LXRα LBD) is on record?
The value was “did not stabilize LXRα H12”.

And the “protection of LXRα H3 from deuterium exchange” value (LXRα LBD)?
The value was “no effect”.

`O=C(O)Cc1ccc(CNC(=O)[C@@H]2Cc3ccccc3N2S(=O)(=O)c2ccc(-c3ccccc3C(F)(F)F)cc2)cc1` [F1, reference compound] was tested. Which “stabilization of LXRα H12” value (LXRα LBD) did it give?
The value was “did not stabilize LXRα H12”.

For `CC(C)(O)c1cn(-c2ccc(-c3cc(F)c(CO)c(S(C)(=O)=O)c3)cc2F)c(C(C)(C)c2c(Cl)cccc2Cl)n1` [BMS-852927], which “LXR target gene expression in LXR KO macrophages” value (LXR KO macrophages) is on record?
Its value is “does not induce LXR”.

And the “stabilization of LXRα H12” value (LXRα LBD)?
The value was “did not stabilize LXRα H12”.

What about the “protection of LXRα H3 from deuterium exchange” value (LXRα LBD) of the same molecule?
The value was 60%.

And the “ABCA1 mRNA levels in human whole blood assay” value (ABCA1 mRNA)?
The value was “induces ABCA1 mRNA levels, however with lower efficiency than full”.

For `Fc1ccc(-c2c3cccc(C(F)(F)F)c3nn2Cc2ccc(F)cc2Cl)cc1` [LXR-623, reference compound], which “protection of LXRα H3 from deuterium exchange” value (LXRα LBD) is on record?
The value was “no effect”.

Source: PMC6874530, “Structural analysis identifies an escape route from the adverse lipogenic effects of liver X receptor ligands” (Communications Biology, 2019)
